Measured values taken from patent publication US20240124417A1, “COMPOUNDS USEFUL AS IMMUNOMODULATORS” (Bristol-Myers Squibb Company, priority 2019, published 2024).

target: T1, PD-1/PD-L1 (Homo sapiens, UniProt Q9NZQ7); test: PD-1/PD-L1 Homogenous Time-Resolved Fluorescence (HTRF) binding assay; conditions: PD-L1-His 10 nM, PD-1-Ig 20 nM
T1 construct: TVMV protease site linker (C); made in house; host or cells: HEK293T cells
Outline: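 Time-resolved FRET read-out using Eu-cryptate anti-Ig (1 nM final) and APC anti-His (20 nM final). Tagged extracellular domains were used in BSA/Tween-20-supplemented dPBS, with compound pre-incubated 15 min with PD-L1-His (10 nM) before PD-1-Ig (20 nM) was added for 15 min. Other human pairs: PD-L2-His 5 nM with PD-1-Ig 20 nM; PD-L1-Ig 10 nM with CD80-His 100 nM.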

T1 sequence (Q9NZQ7 18-239): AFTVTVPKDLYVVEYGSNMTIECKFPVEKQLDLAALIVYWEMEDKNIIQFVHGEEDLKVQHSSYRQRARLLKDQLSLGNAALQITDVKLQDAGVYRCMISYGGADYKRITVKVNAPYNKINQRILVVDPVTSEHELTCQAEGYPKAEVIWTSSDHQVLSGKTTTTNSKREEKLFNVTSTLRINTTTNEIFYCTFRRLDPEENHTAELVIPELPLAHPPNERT

Row | Structure (SMILES) | IC50 [nM]
1 | CC(=O)NC1CCN(CCCOc2cccc(-c3cccc(COc4cc(OCc5cncc(C#N)c5)c(CN5CCCCC5c5ncc[nH]5)cc4Cl)c3C)c2C)CC1 (centres unmarked) [Example 1045, N-(1-(3-((3′-((4-((2-(1H-Imidazol-2-yl)piperidin-1-yl)methyl)-2-chloro-5-((5-cyano-pyridin-3-yl)methoxy)phenoxy)methyl)-2,2′-dimethyl-[1,1′-biphenyl]-3-yl)oxy)propyl)-piperidin-4-yl)acetamide] | 3.8
2 | CCc1nc(CN(CCOC)Cc2cc(Cl)c(OCc3cccc(-c4cccc(OCCCN5CC[C@@H](O)C5)c4C)c3C)cc2OCc2cncc(C#N)c2)[nH]c1CC [Example 2571, (R)-5-((4-chloro-2-((((4,5-diethyl-1H-imidazol-2-yl)methyl)(2-methoxyethyl)amino)methyl)-5-((3′-(3-(3-hydroxypyrrolidin-1-yl)propoxy)-2,2′-dimethyl-[1,1′-biphenyl]-3-yl)methoxy)phenoxy)methyl)nicotinonitrile] | 3.8
3 | Cc1c(COc2cc(OCc3cncc(C#N)c3)c(CNC3CCc4[nH]ncc4C3)cc2Cl)cccc1-c1cccc(OCCCN2CC[C@@H](O)C2)c1C (stereo partly drawn) [Example 2563, 5-((4-chloro-5-((3′-(3-((R)-3-hydroxypyrrolidin-1-yl)propoxy)-2,2′-dimethyl-[1,1′-biphenyl]-3-yl)methoxy)-2-(((4,5,6,7-tetrahydro-1H-indazol-5-yl)amino)methyl)phenoxy)methyl)nicotinonitrile] | 0.5
4 | CC(=O)NC1CCN(CCCOc2cccc(-c3cccc(COc4cc(OCc5cncc(C#N)c5)c(CN5CCCC5c5nnn[nH]5)cc4Cl)c3C)c2C)CC1 (centres unmarked) [Example 1051, N-(1-(3-((3′-((4-((2-(1H-Tetrazol-5-yl)pyrrolidin-1-yl)methyl)-2-chloro-5-((5-cyano-pyridin-3-yl)methoxy)phenoxy)methyl)-2,2′-dimethyl-[1,1′-biphenyl]-3-yl)oxy)propyl)-piperidin-4-yl)acetamide] | 2.1
5 | Cc1c(COc2cc(OCc3cncc(C#N)c3)c(CN(C)Cc3cc(-c4ccccc4)on3)cc2Cl)cccc1-c1cccc(OCCCN2CC[C@@H](O)C2)c1C [Example 2543, (R)-5-((4-chloro-5-((3′-(3-(3-hydroxypyrrolidin-1-yl)propoxy)-2,2′-dimethyl-[1,1′-biphenyl]-3-yl)methoxy)-2-((methyl((5-phenylisoxazol-3-yl)methyl)amino)methyl)phenoxy)methyl)nicotinonitrile] | 192
6 | Cc1c(COc2cc(OCc3cncc(C#N)c3)c(CNCc3nnn[nH]3)cc2Cl)cccc1-c1cccc(OCCCN2CC[C@@H](O)C2)c1C [Example 1002, (R)-5-((2-((((1H-Tetrazol-5-yl)methyl)amino)methyl)-4-chloro-5-((3′-(3-(3-hydroxy-pyrrolidin-1-yl)propoxy)-2,2′-dimethyl-[1,1′-biphenyl]-3-yl)methoxy)phenoxy)methyl)-nicotinonitrile] | 2.9
7 | Cc1cc(CN(C)Cc2cc(Cl)c(OCc3cccc(-c4cccc(OCCCN5CC[C@@H](O)C5)c4C)c3C)cc2OCc2cncc(C#N)c2)[nH]n1 [Example 2025, (R)-5-((4-chloro-5-((3′-(3-(3-hydroxypyrrolidin-1-yl)propoxy)-2,2′-dimethyl-[1,1′-biphenyl]-3-yl)methoxy)-2-((methyl((3-methyl-1H-pyrazol-5-yl)methyl)amino)methyl)phenoxy)methyl)nicotinonitrile] | 1.6
8 | Cc1c(COc2cc(OCc3cncc(C#N)c3)c(CNCCc3cc[nH]n3)cc2Cl)cccc1-c1cccc(OCC2CCCN(C)C2)c1Cl (centres unmarked) [Example 2582, 5-((2-(((2-(1H-pyrazol-3-yl)ethyl)amino)methyl)-4-chloro-5-((2′-chloro-2-methyl-3′-((1-methylpiperidin-3-yl)methoxy)-[1,1′-biphenyl]-3-yl)methoxy)phenoxy)methyl)nicotinonitrile] | 3.7
